In patent US10245246B2, “β-substituted β-amino acids and analogs as chemotherapeutic agents” (QUADRIGA BIOSCIENCES, INC., priority 2014, dated 2019):

What was measured:
[1] = tested on: LLCPK cells conditionally expressing hLAT1; assay type: cell-based
[2] = tested on: B16 melanoma cells; assay: In vivo tumor growth suppression, B16 efficacy model; details: C57BL/6 mice, s.c. B16 melanoma, dosed IP daily for 12 days; test compound 5 and 10 mg/kg, melphalan 2.5 mg/kg

## N[C@@H](Cc1ccc(N(CCCl)CCCl)cc1)C(=O)O [Melphalan]
[1]
  percent surviving cells in cells expressing LAT1 compared to cells not expressing LAT1 (reduction): about the same
[2]
  Tumor Growth (% Control), 5 days post-dosing: 56 % Control
  Tumor Growth (% Control), End of dosing: 33 % Control
